The record followed here is ChEMBL document CHEMBL5038625, “Application of the dual-tail approach for the design and synthesis of novel Thiopyrimidine-Benzenesulfonamide hybrids as selective carbonic anhydrase inhibitors” (Eur J Med Chem, 2022).

SMILES strings stand for the structures.

One assay has as its target Carbonic anhydrase 9 (Homo sapiens, UniProt Q16790). Kind of assay: Inhibition of human CA9 preincubated for 15 mins by phenol red dye based stopped flow CO2 hydration assay.
A further assay concerns SF-539. Kind of assay: Antiproliferative activity against human SF-539 cells assessed as cell growth inhibition at 10 uM incubated for 24 hrs by sulforhodamine B assay. The assay is classed as functional. The conditions noted are these: read-out: GI.
For the next assay, the system named is K562. Kind of assay: Antiproliferative activity against human K562 cells assessed as cell growth inhibition at 10 uM incubated for 24 hrs by sulforhodamine B assay. The assay is classed as functional. Particulars: read-out: GI. For orientation: Sulforhodamine B stains cellular protein and so reports cell mass.
The subject of a further assay is SR. Kind of assay: Antiproliferative activity against human SR cells assessed as cell growth inhibition at 10 uM incubated for 24 hrs by sulforhodamine B assay. The assay is classed as functional. Particulars: read-out: GI.
A further assay concerns NCI-H226. Kind of assay: Antiproliferative activity against human NCI-H226 cells assessed as cell growth inhibition at 10 uM incubated for 24 hrs by sulforhodamine B assay. The assay is classed as functional. Particulars: read-out: GI.
A further assay concerns NCI-H522. Kind of assay: Antiproliferative activity against human NCI-H522 cells assessed as cell growth inhibition at 10 uM incubated for 24 hrs by sulforhodamine B assay. The conditions noted are these: read-out: GI. The assay is classed as functional.
For another assay, the system named is UACC-62. Kind of assay: Antiproliferative activity against human UACC-62 cells assessed as cell growth inhibition at 10 uM incubated for 24 hrs by sulforhodamine B assay. The assay is classed as functional. The conditions noted are these: read-out: GI.
A further assay concerns CAKI-1. Description: Antiproliferative activity against human CAKI-1 cells assessed as cell growth inhibition at 10 uM incubated for 24 hrs by sulforhodamine B assay. The conditions noted are these: read-out: GI. The assay is classed as functional.
The test system of a further assay is UO-31. Kind of assay: Antiproliferative activity against human UO-31 cells assessed as cell growth inhibition at 10 uM incubated for 24 hrs by sulforhodamine B assay. The assay is classed as functional. Particulars: read-out: GI.
For the next assay, the system named is MCF7. Description: Antiproliferative activity against human MCF7 cells assessed as reduction in cell viability incubated for 24 hrs by sulforhodamine B assay. The assay is classed as functional, cell-based. Particulars: MCF7, 24 h.
Assay [1] concerns T47D. Description: Antiproliferative activity against human T47D cells assessed as reduction in cell viability incubated for 24 hrs by sulforhodamine B assay. The assay is classed as functional, cell-based.
In assay [2] the test system is MDA-MB-231. Description: Antiproliferative activity against human MDA-MB-231 cells assessed as reduction in cell viability incubated for 24 hrs by sulforhodamine B assay. The assay is classed as functional, cell-based. Particulars: MDA-MB-231, 24 h.
Assay [3] relates to MDA-MB-231. Kind of assay: Antiproliferative activity against human MDA-MB-231 cells assessed as cell growth inhibition at 10 uM incubated for 24 hrs by sulforhodamine B assay. The assay is classed as functional. Particulars: read-out: GI.
In the next assay the target is Carbonic anhydrase 1 (Homo sapiens, UniProt P00915). Description: Inhibition of human CA1 preincubated for 15 mins by phenol red dye based stopped flow CO2 hydration assay.
Sequence of Carbonic anhydrase 1 (P00915 whole entry): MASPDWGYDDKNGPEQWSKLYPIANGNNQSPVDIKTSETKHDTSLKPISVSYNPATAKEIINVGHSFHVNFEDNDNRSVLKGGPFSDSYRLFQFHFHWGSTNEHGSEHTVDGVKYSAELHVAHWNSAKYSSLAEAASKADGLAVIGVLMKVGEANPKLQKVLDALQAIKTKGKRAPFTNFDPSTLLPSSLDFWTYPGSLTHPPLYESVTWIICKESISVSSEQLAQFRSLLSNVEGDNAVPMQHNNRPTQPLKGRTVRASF
A further assay has as its target Carbonic anhydrase 2 (Homo sapiens, UniProt P00918). Description: Inhibition of human CA2 preincubated for 15 mins by phenol red dye based stopped flow CO2 hydration assay.
For another assay, the system named is CCRF-CEM. Kind of assay: Antiproliferative activity against human CCRF-CEM cells assessed as cell growth inhibition at 10 uM incubated for 24 hrs by sulforhodamine B assay. The assay is classed as functional. Particulars: read-out: GI.
The subject of a further assay is MOLT-4. Kind of assay: Antiproliferative activity against human MOLT-4 cells assessed as cell growth inhibition at 10 uM incubated for 24 hrs by sulforhodamine B assay. The assay is classed as functional. Particulars: read-out: GI.
For the next assay, the system named is RPMI-8226. Kind of assay: Antiproliferative activity against human RPMI-8226 cells assessed as cell growth inhibition at 10 uM incubated for 24 hrs by sulforhodamine B assay. The assay is classed as functional. Particulars: read-out: GI.
The next assay relates to A549. Description: Antiproliferative activity against human A549 cells assessed as cell growth inhibition at 10 uM incubated for 24 hrs by sulforhodamine B assay. The assay is classed as functional. Particulars: read-out: GI.
For a further assay, the system named is HCT-15. Description: Antiproliferative activity against human HCT-15 cells assessed as cell growth inhibition at 10 uM incubated for 24 hrs by sulforhodamine B assay. Particulars: read-out: GI. The assay is classed as functional.
The next assay deals with KM12. Description: Antiproliferative activity against human KM12 cells assessed as cell growth inhibition at 10 uM incubated for 24 hrs by sulforhodamine B assay. The assay is classed as functional. Particulars: read-out: GI.
The next assay has as its system SNB-75. Kind of assay: Antiproliferative activity against human SNB-75 cells assessed as cell growth inhibition at 10 uM incubated for 24 hrs by sulforhodamine B assay. The assay is classed as functional. Particulars: read-out: GI.
The next assay deals with U-251. Kind of assay: Antiproliferative activity against human U-251 cells assessed as cell growth inhibition at 10 uM incubated for 24 hrs by sulforhodamine B assay. The assay is classed as functional. The conditions noted are these: read-out: GI.
The test system of a further assay is Malme-3M. Description: Antiproliferative activity against human Malme-3M cells assessed as cell growth inhibition at 10 uM incubated for 24 hrs by sulforhodamine B assay. The assay is classed as functional. Particulars: read-out: GI.
The next assay deals with OVCAR-4. Description: Antiproliferative activity against human OVCAR-4 cells assessed as cell growth inhibition at 10 uM incubated for 24 hrs by sulforhodamine B assay. The assay is classed as functional. The conditions noted are these: read-out: GI.
The subject of a further assay is PC-3. Kind of assay: Antiproliferative activity against human PC-3 cells assessed as cell growth inhibition at 10 uM incubated for 24 hrs by sulforhodamine B assay. The assay is classed as functional. Particulars: read-out: GI.
In assay [4] the test system is T47D. Kind of assay: Antiproliferative activity against human T47D cells assessed as cell growth inhibition at 10 uM incubated for 24 hrs by sulforhodamine B assay. Particulars: read-out: GI. The assay is classed as functional.

One may read the Ki as a measure of affinity in units of concentration, obtained from inhibition or displacement. High values mean lower affinity, low ones higher affinity. By IC50 is commonly meant the midpoint of a concentration-inhibition curve.

Consider `COc1ccc(C(=O)CSc2nc(Nc3ccc(S(N)(=O)=O)cc3)c(C#N)c(C(C)C)n2)cc1`, for which the inhibition constant (Ki) at Carbonic anhydrase 9 amounted to 0.0918 µM. Further, the inhibition of growth at 10 µM in the assay on SF-539 was found to be 5.08%; in the assay with K562, 10.9%; in the assay on SR, 11.7%; in the assay on NCI-H226, 7.41%; with NCI-H522, 5.22%; in the assay with UACC-62 it was 8.47%. The inhibition of growth at 10 µM with CAKI-1 came out at 5%; in the assay on UO-31 it was 16.5%; with MDA-MB-231 [3], 5.52%. The values for the IC50 in the assay on MCF7, in the assay with T47D [1] and in the assay with MDA-MB-231 [2] were 19.8 µM, 60 µM and 50.4 µM, respectively.

Consider `NS(=O)(=O)c1ccc(Nc2cc(-c3ccccc3)nc(SCC(=O)c3ccccc3)n2)cc1`, for which the Ki on Carbonic anhydrase 9 worked out at 0.0858 µM. Also, the 50% inhibitory concentration (IC50) with MCF7 was found to be 44.5 µM; with T47D [1], 44.4 µM; with MDA-MB-231 [2], 26 µM.

As to `COc1ccc(C(=O)CSc2nc(Nc3cccc(S(N)(=O)=O)c3)cc(-c3ccccc3)n2)cc1`, the figures for the inhibition constant (Ki) at Carbonic anhydrase 1, at Carbonic anhydrase 2 and at Carbonic anhydrase 9 were over 20 µM, over 20 µM and 0.3 µM, respectively. Further, the inhibition of growth at 10 µM turned out to be 16.9% in the assay with CCRF-CEM; 12.7% with K562; 26.2% in the assay on MOLT-4; 6.7% with RPMI-8226; 23.7% in the assay on SR; 7.98% in the assay with A549. The inhibition of growth at 10 µM is 6.62% with NCI-H522; 13.8% in the assay with HCT-15; 6.88% in the assay with KM12; 12.3% in the assay with SNB-75; 6.41% in the assay with U-251; 7.42% with Malme-3M. Also, the inhibition of growth at 10 µM in the assay with UACC-62 is 8.31%; with OVCAR-4, 12.2%; in the assay with CAKI-1, 7.16%; in the assay on UO-31, 16.4%; in the assay with PC-3, 15.8%; in the assay with T47D [4], 20.2%. In addition, in the assay on MDA-MB-231 [3], the inhibition of growth at 10 µM turned out to be 6.45%. In addition, the concentration for half-maximal inhibition (IC50) with MCF7 worked out at 30.9 µM; in the assay with T47D [1], 28 µM; in the assay on MDA-MB-231 [2], 42.5 µM.

On to `O=c1[nH]cc(F)c(=O)[nH]1` [FLUOROURACIL], for which the half-maximal inhibitory concentration (IC50) with MCF7 was 2.46 µM; with T47D [1], 6.7 µM; with MDA-MB-231 [2], 3.5 µM.

In turn, `NS(=O)(=O)c1cccc(Nc2cc(-c3ccccc3)nc(SCC(=O)c3ccc(Br)cc3)n2)c1` registered a Ki on Carbonic anhydrase 9 of 0.525 µM.

On to `NS(=O)(=O)c1cccc(Nc2cc(-c3ccccc3)nc(SCC(=O)c3ccccc3)n2)c1`, for which the affinity on Carbonic anhydrase 9, expressed as Ki, was 0.724 µM.
